According to US11590158B2, “Pharmaceutical compositions of lipoic acid choline ester salts and methods of treatment using same” (Novartis AG, priority 2020, dated 2023):
“Also recorded” adds a separate entry of the source. Counter-ions that a name gives are not always drawn. Like-named read-outs stand apart in the source and are kept apart here.

Columns and labels:
[1] = tested on: Staphylococcus aureus, Pseudomonas aeruginosa, Escherichia coli, Candida albicans, and Aspergillus brasiliensis; test: Preservative efficacy test, overall outcome against USP criteria; assay type: cell-based; details: formulations with cyclodextrin
Protocol: The testing was carried out using the following procedure: Five different challenge organisms were evaluated (Staphylococcus aureus, Pseudomonas aeruginosa, Escherichia coli, Candida albicans, and Aspergillus brasiliensis) were evaluated for each test formulation, and inoculated to a concentration of 10^6 colony forming units per ml (CFU/ml). The microbial suspension was incubated and sampled at 7, 14, 21, and 28 days. At the time of sampling, a sample was diluted 10-fold into tryptase soy broth medium, and 100 μl plated in growth agar plates to count survivors. The survivor count was used to determine log reduction. The preservative efficacy test criteria for multidose pharmaceutical compositions under US Pharmacopoeia standards are as follows. [table]

[2] = Hygroscopicity (exposure to RH, DVS); assay type: physicochemical; details: for Hygroscopicity / Hygroscopicity, water uptake: DVS; for Hygroscopicity: >70% RH; for Hygroscopicity, water uptake: until 70% RH
[3] = Hygroscopicity (exposure to RH, DVS); assay type: physicochemical; details: for Hygroscopicity: solid salt, ambient conditions; for Hygroscopicity upon exposure: 58% RH for one day
Description: It is deliquescent upon exposure to 58% RH for one day. In DVS measurement, LACE chloride absorbs 18.6% moisture from 0% RH to 50% RH. The DVS isotherm is irreversible. It is amorphous at ambient but crystalline under 0% RH by Cryo-XRPD.

[4] = Equilibration of LACE chloride in solvents (solubility test); assay type: physicochemical; details: 100 mg in 1 mL, 25° C. for 7 days
Description: The mixture was equilibrated for 7 days, with visual observations at days 1, 2, and 7. If a slurry resulted, it was filtered and clear solutions were either cooled or evaporated.

[5] = Stability in aqueous solutions or suspensions; assay type: physicochemical
Description: At pH 4.7 buffer solution about 4% degradation is observed.

[6] = Stability in organic solutions or suspensions; assay type: physicochemical; details: 40° C. for 1 week
Photostability = assay type: physicochemical
[7] = 1 week
Protocol: (§1) LACE salts were dissolved in each of the following excipients: 0.01% benzalkonium chloride, 20 mM acetate buffer, 20 mM citrate buffer, 1% Na-carboxymethyl cellulose, 1% hydroxypropylmethyl cellulose and 0.01% Na-ethylene diamine tetraacetic acid.

rabbit eye = test: Acute rabbit ocular tolerability study; assay type: in vivo; details: rabbit left eye dosed 6 times, one drop about 30 microliter, about 1 hour apart
Protocol: A number of excipients were explored to determine which excipients would reduce the formation of associative species. Acute rabbit ocular tolerability studies were performed to test the ocular tolerability of LACE tosylate with various excipients. The study design involved three male rabbits per arm. The rabbits' left eye was dosed 6 times with one drop each time, about 1 hour apart, administering about 30 microliter per drop. The right eye was not dosed and served as a control.

[8] = pH 4.7 buffer solution, 40° C. for 1 week
[9] = other solvents (EtOAC, acetone, IPA and THF)
[10] = 5% solutions in aqueous excipients (0.01% BAC, 20 mM acetate, 20 mM citrate, 1% Na-CMC, 1% HPMC, 0.01% Na-EDTA), 40° C. for 2 weeks
[11] = same excipients, 40° C. for 2 weeks
[12] = same excipients, 40° C./75% RH for 2 weeks

Protocol for Excipient compatibility: as §1

Compound: N=C(N)NC(=N)N [Biguanide]
- efficacy as a preservative in LACE tosylate formulations [1]: not found to be efficacious

Compound: C[N+](C)(C)CCOC(=O)CCCCC1CCSS1.Cc1ccc(S(=O)(=O)[O-])cc1 (stereo not shown) [Form A, lipoic acid choline ester tosylate]
- Hygroscopicity [2]: deliquescent >70% RH
- Hygroscopicity, water uptake [2]: 0.64% water uptake until

Compound: C[N+](C)(C)CCOC(=O)CCCCC1CCSS1.Cc1ccc(S(=O)(=O)[O-])cc1 (stereo not shown) [Form B, lipoic acid choline ester tosylate]
- Hygroscopicity [2]: deliquescent >70% RH
- Hygroscopicity, water uptake [2]: 0.55% water uptake until

Compound: C[N+](C)(C)CCOC(=O)CCCCC1CCSS1.[Br-] (stereo not shown) [LACE bromide]
- Hygroscopicity [3]: hygroscopic

Compound: C[N+](C)(C)CCOC(=O)CCCC[C@@H]1CCSS1.[Cl-] [LACE-Cl, lipoic acid choline ester chloride]
- Comments (equilibration in solvent) ([4]; 2-Me-THF): sticky solid
- Comments (equilibration in solvent) ([4]; 2 Methyl 2 butanone): Clear solution after 7 days
- Comments (equilibration in solvent) ([4]; ACN): Clear solution after 7 days
- Comments (equilibration in solvent) ([4]; Acetic acid): almost dissolved
- Comments (equilibration in solvent) ([4]; Acetone): initial suspension, with particles stuck on wall
- Comments (equilibration in solvent) ([4]; Anisole): sticky solid
- Comments (equilibration in solvent) ([4]; Benzyl alcohol): Clear solution after 7 days
- Comments (equilibration in solvent) ([4]; Chloroform): clear solution that yielded an oil after
- Comments (equilibration in solvent) ([4]; Cumene): undissolved solid after 7 days
- Comments (equilibration in solvent) ([4]; Cyclohexane): undissolved solid after 7 days
- Comments (equilibration in solvent) ([4]; DCM): Clear solution after 7 days
- Comments (equilibration in solvent) ([4]; Diethyl ether): undissolved solid after 7 days
- Comments (equilibration in solvent) ([4]; Dioxane): initial suspension, with particles stuck on wall
- Comments (equilibration in solvent) ([4]; EtOAc): suspension
- Comments (equilibration in solvent) ([4]; EtOH): Clear solution after 7 days
- Comments (equilibration in solvent) ([4]; Ethyl formate): suspension
- Comments (equilibration in solvent) ([4]; IPAc): undissolved solid after 7 days
- Comments (equilibration in solvent) ([4]; MEK): initial suspension, with particles stuck on wall
- Comments (equilibration in solvent) ([4]; MTBE): initial suspension, with particles stuck on wall
- Comments (equilibration in solvent) ([4]; MeOH): Clear solution after 7 days
- Comments (equilibration in solvent) ([4]; Nitromethane): Clear solution after 7 days
- Comments (equilibration in solvent) ([4]; Petroleum ether): undissolved solid after 7 days
- Comments (equilibration in solvent) ([4]; Propylene glycol): Clear solution after 7 days
- Comments (equilibration in solvent) ([4]; Pyridine): almost dissolved
- Comments (equilibration in solvent) ([4]; THF): initial suspension turning sticky
- Comments (equilibration in solvent) ([4]; Toluene): sticky solid
- Comments (equilibration in solvent) ([4]; Water): Clear solution after 7 days
- Comments (equilibration in solvent) ([4]; Xylene): undissolved solid after 7 days
- degradation [5, 8]: about 4%
- degradation ([6]; methanol and ethanol): complete degradation
- degradation [6, 9]: severe degradation
- photostability, degradation (Photostability; amber vial): ~5%
- photostability, physical form (Photostability; amber vial): becomes sticky
- photostability, degradation (Photostability; clear vial): severe degradation and color change
- photostability, physical form (Photostability; clear vial): becomes sticky
- Hygroscopicity upon exposure [3]: deliquescent
- moisture absorbed in DVS ([3]; from 0% RH to 50% RH): 18.6%
- Hygroscopicity [3]: highly hygroscopic
- degradation (Solid state stability; 40° C. 75% RH for 1 week): approximately 7%
- physical form (Solid state stability; 40° C. 75% RH for 1 week): becomes sticky mass
- degradation (Solid state stability; 40° C. for 1 week): approximately 7%
- solid state stability / physical form (Solid state stability; 40° C. for 1 week): becomes sticky mass
- behaviour on handling / exposure at ambient conditions (Solid state stability): not suitable for handling under normal conditions
- degradation (Excipient compatibility; [10]): about 5%
- degradation (Excipient compatibility; in Na-CMC, alanine and histidine, 25° C. for 1 week): 2-3%
- degradation (Excipient compatibility; [11]): higher degradation
- degradation (Excipient compatibility; [12]): high-severe degradation
- degradation (Excipient compatibility; with HPMC, 25° C. for 1 week): ~8%
- degradation (Excipient compatibility; with HPβCD, 25° C. for 1 week): 3.35%

Compound: C[N+](C)(C)CCOC(=O)CCCCC1CCSS1.[I-] (stereo not shown) [LACE-I, lipoic acid choline ester iodide]
- degradation [5, 8]: about 4%
- degradation ([6]; methanol and ethanol): complete degradation
- degradation [6, 9]: severe degradation
- photostability (Photostability; amber vial): stable
- photostability, physical form (Photostability; amber vial): remains the same
- photostability, degradation (Photostability; clear vial): severe degradation and color change
- photostability, physical form (Photostability; clear vial): remains unchanged
- Hygroscopicity upon exposure [3]: non-hygroscopic
- Hygroscopicity by DVS ([3]; DVS): non-hygroscopic
- physical form (Solid state stability; 40° C. 75% RH for 1 week): form remains the same
- solid state stability / physical form (Solid state stability; 40° C. for 1 week): stable
- behaviour on handling / exposure at ambient conditions (Solid state stability): changes color; also recorded: discoloration and possibly slow degradation
- degradation (Excipient compatibility; [10]): about 5%
- degradation (Excipient compatibility; [11]): higher degradation
- degradation (Excipient compatibility; [12]): high-severe degradation

Compound: C[N+](C)(C)CCOC(=O)CCCCC1CCSS1 (stereo not shown) [LACE-OBs, lipoic acid choline ester besylate]
- degradation ([5]; 1 week): 10-99%
- degradation ([5]; 1 week, pH 4.7): about 4%
- degradation ([6]; methanol and ethanol): complete degradation
- degradation [6, 9]: severe degradation
- photostability (Photostability; amber vial): stable
- photostability, physical form (Photostability; amber vial): remains the same
- photostability, degradation (Photostability; clear vial): severe degradation and color change
- photostability, physical form (Photostability; clear vial): decrease in crystallinity
- Hygroscopicity upon exposure [3]: deliquescent
- Hygroscopicity [3]: hygroscopic
- degradation [7]: < 2%
- Hygroscopicity upon exposure ([2]; 58% RH up to 6 hours): non hygroscopic
- Hygroscopicity by DVS ([2]; DVS from 50% RH to 90% RH): deliquescent
- physical form (Solid state stability; 40° C. 75% RH for 1 week): become sticky
- solid state stability / physical form (Solid state stability; 40° C. for 1 week): stable

Compound: C[N+](C)(C)CCOC(=O)CCCCC1CCSS1 (stereo not shown) [LACE-OTs, lipoic acid choline ester tosylate]
- degradation ([6]; methanol and ethanol): complete degradation
- degradation [6, 9]: severe degradation
- photostability (Photostability; amber vial): stable
- photostability, physical form (Photostability; amber vial): remains the same
- photostability, degradation (Photostability; clear vial): severe degradation and color change
- photostability, physical form (Photostability; clear vial): some amorphous content
- Hygroscopicity upon exposure [3]: non-hygroscopic
- degradation [7]: < 2%
- degradation ([7]; 5 %): 1-3%
- moisture absorbed in DVS ([2]; up to 60% RH): less than 2%
- physical form (Solid state stability; 40° C. 75% RH for 1 week): become sticky
- solid state stability / physical form (Solid state stability; 40° C. for 1 week): stable
- behaviour on handling / exposure at ambient conditions (Solid state stability): without any degradation

Compound: CC(O)CO (stereo not shown) [Propylene Glycol]
- Tolerated (rabbit eye): No

Compound: lipoic acid choline ester besylate [LACE-OBs]
- behaviour on handling / exposure at ambient conditions (Solid state stability): without any degradation
